Values joined by “and” are separate entries in the source; they are usually repeats but may differ in a detail not shown here. Identical values can stand only once.
Key:
[1] = system: vetch aphid (Megoura viciae); assay: Test B.1: control of vetch aphid on broad bean leaf disks, contact or systemic; assay type: in vivo; details: sprayed on leaf disks, 5 days
Method: For evaluating control of vetch aphid (Megoura viciae) through contact or systemic means the test unit consisted of 24-well-microtiter plates containing broad bean leaf disks.
The compounds or mixtures were formulated using a solution containing 75 wt % water and 25 wt % DMSO. Different concentrations of formulated compounds or mixtures were sprayed onto the leaf disks at 2.5 μl, using a custom built micro atomizer, at two replications.
(§1) For experimental mixtures in these tests identical volumes of both mixing partners at the desired concentrations respectively, were mixed together.
After application, the leaf disks were air-dried and 5-8 adult aphids placed on the leaf disks inside the microtiter plate wells. The aphids were then allowed to suck on the treated leaf disks and incubated at 23±1° C., 50±5% RH (relative humidity) for 5 days. Aphid mortality and fecundity was then visually assessed.

[2] = system: boll weevil (Anthonomus grandis); assay: Test B.3: control of boll weevil, insect diet with eggs; assay type: in vivo; details: sprayed on insect diet, 5 days
Method: For evaluating control of boll weevil (Anthonomus grandis) the test unit consisted of 24-well-microtiter plates containing an insect diet and 20-30 A. grandis eggs.
The compounds or mixtures were formulated using a solution containing 75 wt % water and 25 wt % DMSO. Different concentrations of formulated compounds or mixtures were sprayed onto the insect diet at 20 μl, using a custom built micro atomizer, at two replications.
as §1
After application, microtiter plates were incubated at 23±1° C., 50±5% RH for 5 days. Egg and larval mortality was visually assessed.

[3] = system: tobacco budworm (Heliothis virescens); assay: Test B.5: control of tobacco budworm, insect diet with eggs; assay type: in vivo; details: 5 days
Method: For evaluating control of tobacco budworm (Heliothis virescens) the test unit consisted of 96-well-microtiter plates containing an insect diet and 15-25 H. virescens eggs.
The compounds or mixtures were formulated using a solution containing 75 wt % water and 25 wt % DMSO. Different concentrations of formulated compounds or mixtures were sprayed onto the insect diet at 10 μl, using a custom built micro atomizer, at two replications.
as §1
(§2) After application, microtiter plates were incubated at 28±1° C., 80±5% RH for 5 days. Egg and larval mortality was visually assessed.

[4] = system: green peach aphid (Myzus persicae); assay: Test B.2: control of green peach aphid through systemic means, artificial diet under membrane; assay type: in vivo; details: 3 days
Source text: For evaluating control of green peach aphid (Myzus persicae) through systemic means the test unit consisted of 96-well-microtiter plates containing liquid artificial diet under an artificial membrane.
The compounds or mixtures were formulated using a solution containing 75 wt % water and 25 wt % DMSO. Different concentrations of formulated compounds or mixtures were pipetted into the aphid diet, using a custom built pipetter, at two replications.
as §1
After application, 5-8 adult aphids were placed on the artificial membrane inside the microtiter plate wells. The aphids were then allowed to suck on the treated aphid diet and incubated at 23±1° C., 50±5% RH for 3 days. Aphid mortality and fecundity was then visually assessed. In all cases, a synergistic control effect according to Colby's equation was observed.

[5] = system: Mediterranean fruitfly (Ceratitis capitata); assay: Test B.4: control of Mediterranean fruitfly, insect diet with eggs; assay type: in vivo; details: 5 days
Method: For evaluating control of Mediterranean fruitfly (Ceratitis capitata) the test unit consisted of 96-well-microtiter plates containing an insect diet and 50-80 C. capitata eggs.
The compounds or mixtures were formulated using a solution containing 75 wt % water and 25 wt % DMSO. Different concentrations of formulated compounds or mixtures were sprayed onto the insect diet at 5 μl, using a custom built micro atomizer, at two replications.
as §1, §2

[6] = 100 ppm sprayed onto insect diet
[7] = 4 ppm in aphid diet, mortality and fecundity
[8] = 0.4 ppm sprayed onto insect diet
[9] = 10 ppm sprayed onto insect diet
[10] = 40 ppm sprayed onto insect diet

## Cc1cc(C)cc(CC(NC2=NCCS2)c2cccc3cccnc23)c1 (stereo not drawn)
other
  melting point: 95 to 96 °C

## Cc1cc(C)cc(CC(NC2=NCCS2)c2cccc3c2C(C)(C)C(=O)N3C)c1 (stereo not drawn)
other
  melting point: 270 to 272 °C

## Cc1cc(C)cc(CC(NC2=NCCS2)c2cccc3c2CCC3)c1 (stereo not drawn)
other
  melting point: 120 to 124 °C

## Cc1cc(C)cc(CC(NC2=NCCS2)c2cccc3c2CCCC3)c1 (stereo not drawn)
other
  melting point: 139 to 141 °C

## CC1(C)C(C=C(Cl)Cl)C1C(=O)OC(C#N)c1cccc(Oc2ccccc2)c1 (stereo not drawn) [alphacypermethrin]
[1]; 0.08 ppm
  Average Control: 0%
[1]; 2 ppm
  Average Control: 50%
[2]; 0.04 ppm
  Average Control: 25%

## Cc1cc(C)cc(CC(N=C2NCCS2)c2cccc3c2OCCO3)c1 (stereo not drawn) [compound C.I-27]
[1]; 0.16 ppm
  Average Control: 0%
[3]; [6]
  Average Control [%]: 0%
[4]; 0.16 ppm in aphid diet
  Average Control [%]: 0%
[4]; [7]
  Average Control [%]: 0%
[4]; 20 ppm in aphid diet
  Average Control [%]: 0%
[5]; 0.16 ppm sprayed onto insect diet
  Average Control [%]: 0%
[5]; 20 ppm sprayed onto insect diet
  Average Control [%]: 0%
[5]; 100 ppm sprayed onto insect diet, egg and larval mortality
  Average Control [%]: 0%
[2]; 0.16 ppm
  Average Control: 0%
[2]; 0.8 ppm
  Average Control: 0%
[2]; 20 ppm
  Average Control: 0%
[2]; 100 ppm
  Average Control: 0%

## Cc1cc(C)cc(CC(N=C2NCCS2)c2cccc3c2OCC3)c1 (stereo not drawn) [compound C.I-47]
[1]; 0.16 ppm
  Average Control: 0%
[1]; 0.8 ppm
  Average Control: 50%
[3]; 4 ppm sprayed onto insect diet, egg and larval mortality
  Average Control [%]: 0%
[4]; 0.8 ppm in aphid diet
  Average Control [%]: 0%
[4]; [7]
  Average Control [%]: 25% and 50%

## CNC(=O)c1cc(C#N)cc(C)c1NC(=O)c1cc(Br)nn1-c1ncccc1Cl [cyazypyr]
[1]; 0.4 ppm
  Average Control: 0%
[3]; [8]
  Average Control [%]: 0%
[5]; [9]
  Average Control [%]: 50%
[2]; 0.4 ppm
  Average Control: 0%

## N#Cc1nn(-c2c(Cl)cc(C(F)(F)F)cc2Cl)c(N)c1[S+]([O-])C(F)(F)F (stereo not drawn) [fipronil]
[4]; 2 ppm in aphid diet
  Average Control [%]: 50%
[5]; [8]
  Average Control [%]: 25%

## N#CCNC(=O)c1cnccc1C(F)(F)F [flonicamid]
[1]; 0.8 ppm
  Average Control: 0%
[3]; [6]
  Average Control [%]: 0%
[4]; [7]
  Average Control [%]: 0%
[2]; 100 ppm
  Average Control: 0%

## O=[N+]([O-])NC1=NCCN1Cc1ccc(Cl)nc1 [imidacloprid]
[1]; 0.016 ppm
  Average Control: 0%
[1]; 2 ppm
  Average Control: 50%
[4]; 0.4 ppm in aphid diet
  Average Control [%]: 50%

## CC(C)(C)c1ccc(CSc2cnn(C(C)(C)C)c(=O)c2Cl)cc1 [pyridaben]
[3]; [10]
  Average Control [%]: 0%
[5]; [10]
  Average Control [%]: 25%
[2]; 8 ppm
  Average Control: 50%

## CNC(=O)c1cc(Cl)cc(C)c1NC(=O)c1cc(Br)nn1-c1ncccc1Cl [rynaxypyr]
[1]; 0.4 ppm
  Average Control: 0%

## CCOC(=O)OC1=C(c2cc(C)ccc2C)C(=O)N[C@]12CC[C@@H](OC)CC2 [spirotetramat]
[1]; 0.8 ppm
  Average Control: 0%
[4]; [7]
  Average Control [%]: 0%
[4]; 20 ppm in aphid diet
  Average Control [%]: 0%

## CN1COCN(Cc2cnc(Cl)s2)/C1=N\[N+](=O)[O-] [thiamethoxam]
[5]; [9]
  Average Control [%]: 25%
[2]; 2 ppm
  Average Control: 25%

## abamectin
[1]; 0.08 ppm
  Average Control: 0%
[4]; 0.016 ppm in aphid diet
  Average Control [%]: 0%
[4]; 0.08 ppm in aphid diet
  Average Control [%]: 0%
[5]; 0.016 ppm sprayed onto insect diet
  Average Control [%]: 0%
[2]; 0.016 ppm
  Average Control: 25%

Source: patent publication US8580710B2, “Pesticidal active mixtures comprising aminothiazoline compounds” (BASF SE, priority 2008, dated 2013)
